The values below come from ChEMBL document CHEMBL1201862, “PubChem BioAssay data set” (2004).

Test systems include A498; A549; DMS-114; DMS-273; HOP-92; KM-20L2; KM12; M19-MEL; NCI-H23; NCI/ADR-RES; OVCAR-3; OVCAR-4; OVCAR-5; RPMI-8226; SK-MEL-2; SN12C; SNB-78; SW-620; UACC-62; XF498.
Common to all, as to test: inhibition of tumour cell growth, NCI panel, 48 h

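Where inhibition never reached the appropriate level, the endpoint shown equals the highest concentration tested. Otherwise, values were interpolated linearly from a five-concentration, 48-hour dose response in 96-well plates. GI50: concentration for 50% inhibition of growth.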 Calls of active or inactive are those of the source. Rule as the data show it: active = GI50 up to about 1.1 µM and inactive = higher.

Turning to `O=C1c2cccc3cc4ccccc4c(c23)C(=O)N1CCNCCN1C(=O)c2cccc3cc4ccccc4c(c23)C1=O`, the GI50 is 0.716 µM (active) in the assay with A498; 0.186 µM (active) with A549; 0.23 µM (active) with DMS-114; 0.277 µM (active) in the assay with DMS-273; 0.449 µM (active) in the assay on HOP-92; 0.518 µM (active) with KM-20L2. Besides, the GI50 is 3.93 µM (inactive) with KM12; 0.508 µM (active) in the assay with M19-MEL; 0.364 µM (active) with NCI-H23; 0.522 µM (active) in the assay with NCI/ADR-RES; 0.484 µM (active) in the assay on OVCAR-3; 0.625 µM (active) in the assay on OVCAR-4. The GI50 in the assay on OVCAR-5 is 0.406 µM (active); in the assay on RPMI-8226 it was 0.718 µM (active); in the assay on SK-MEL-2, 1.58 µM (inactive); in the assay with SN12C, 0.306 µM (active); in the assay on SNB-78, 0.518 µM (active); in the assay on SW-620, 0.238 µM (active). The GI50 in the assay with UACC-62 was 0.318 µM (active); in the assay on XF498, 0.254 µM (active).
As to `CSc1sc(=S)sc1SC`, the GI50 was > 100 µM (inactive) in the assay on A498; > 100 µM (inactive) with A549; > 100 µM (inactive) in the assay on DMS-114; 77.8 µM (inactive) in the assay on DMS-273; > 100 µM (inactive) with HOP-92; > 100 µM (inactive) in the assay on KM-20L2. Moreover, the GI50 in the assay on KM12 was > 100 µM (inactive); in the assay on M19-MEL, > 100 µM (inactive); in the assay with NCI-H23, > 100 µM (inactive); with NCI/ADR-RES, 25.7 µM (inactive); in the assay with OVCAR-3, > 100 µM (inactive); with OVCAR-4, > 100 µM (inactive). Besides, the GI50 in the assay on OVCAR-5 is > 100 µM (inactive); in the assay with RPMI-8226, > 100 µM (inactive); with SK-MEL-2, > 31.6 µM (inactive); in the assay with SN12C it was > 100 µM (inactive); in the assay with SNB-78, > 100 µM (inactive); in the assay on SW-620, > 100 µM (inactive). In addition, the GI50 in the assay with UACC-62 and in the assay on XF498 was > 100 µM (inactive) each time.
`C=C1C(=O)OC2CC(C)C3C4OC4C(O)C3(C)C(O)C12` (stereo not given): the GI50 in the assay on A498 was 16 µM (inactive); with A549, 53.5 µM (inactive); in the assay with DMS-114, 12.5 µM (inactive); with DMS-273, 18.4 µM (inactive); in the assay with HOP-92, 23.6 µM (inactive); in the assay on KM-20L2, 14.1 µM (inactive). Besides, the GI50 in the assay on KM12 is 23.5 µM (inactive); in the assay on M19-MEL, 21.1 µM (inactive); in the assay with NCI-H23, 14.4 µM (inactive); in the assay with NCI/ADR-RES, 20.7 µM (inactive); in the assay with OVCAR-3, 25.9 µM (inactive); in the assay with OVCAR-4 it was 26.5 µM (inactive). Besides, the GI50 is 64 µM (inactive) with OVCAR-5; 13.7 µM (inactive) in the assay with RPMI-8226; 25.9 µM (inactive) with SK-MEL-2; 23 µM (inactive) in the assay with SN12C; 13.5 µM (inactive) with SNB-78; 16.5 µM (inactive) with SW-620. The figures for the GI50 in the assay on UACC-62 and with XF498 were 12.6 µM (inactive) and 22.2 µM (inactive), respectively.
`CCC1OC(=O)C(C)C(OC2CC(C)(O)C(O)C(C)O2)C(C)C(O)C(C)(O)CC(C)C(=O)C(C)C(O)C1C` (stereo not given): the GI50 in the assay with A498 was > 267 µM (inactive); in the assay on A549, > 300 µM (inactive); with DMS-114 it was > 300 µM (inactive); in the assay with DMS-273, > 300 µM (inactive); with HOP-92 it was 30 µM (inactive); in the assay with KM-20L2 it was > 300 µM (inactive). In addition, the GI50 is 225 µM (inactive) in the assay with KM12; > 300 µM (inactive) with M19-MEL; > 300 µM (inactive) with NCI-H23; > 300 µM (inactive) in the assay on NCI/ADR-RES; > 300 µM (inactive) in the assay on OVCAR-3; > 300 µM (inactive) in the assay with OVCAR-4. The GI50 is > 292 µM (inactive) in the assay on OVCAR-5; > 300 µM (inactive) in the assay with RPMI-8226; > 300 µM (inactive) with SK-MEL-2; > 300 µM (inactive) with SN12C; 204 µM (inactive) with SNB-78; > 300 µM (inactive) with SW-620. Also, the GI50 in the assay with UACC-62 and in the assay on XF498 was > 300 µM (inactive) each time.
Consider `CCC/C=C/C=C\C(=O)O[C@@H]1[C@@H](C)[C@]2(O)[C@@H]3C=C(C)C(=O)[C@H]3CC(COC(C)=O)=C[C@H]2[C@@H]2C(C)(C)[C@]12OC(C)=O`, for which the GI50 was 1.99 µM (inactive) in the assay with A498; 4.59 µM (inactive) with A549; 45.1 µM (inactive) with DMS-114; 22.6 µM (inactive) in the assay on DMS-273; 43.8 µM (inactive) with HOP-92; 44.4 µM (inactive) with KM-20L2. Also, the GI50 was 47.9 µM (inactive) in the assay on KM12; 32.2 µM (inactive) in the assay with M19-MEL; 33.7 µM (inactive) in the assay with NCI-H23; 50.7 µM (inactive) in the assay with NCI/ADR-RES; 46.7 µM (inactive) in the assay on OVCAR-3; 30.2 µM (inactive) in the assay with OVCAR-4. Further, the GI50 with OVCAR-5 was 66.5 µM (inactive); in the assay on RPMI-8226, 22.9 µM (inactive); in the assay on SK-MEL-2, 43.3 µM (inactive); with SN12C, 40.3 µM (inactive); with SNB-78, 44.9 µM (inactive); in the assay with SW-620, 11.2 µM (inactive). Besides, the GI50 is 35.2 µM (inactive) with UACC-62 and 7.29 µM (inactive) with XF498.
